Source: US11504382B2, “Tricyclic inhibitors of Hepatitis B virus” (Antios Therapeutics, Inc., priority 2018, dated 2022)

What follows are compounds tested on HBV (assay: HBV inhibition assay in HepAD38 cells (extracellular HBV DNA by direct qPCR)). Conditions: 0.05 μM, 96 hours, relative to non-treated reference.
Type: cell-based, Hepatitis B virus

`CCOC(=O)N1CC2COc3c(cn(C)c3C(=O)Nc3ccc(F)c(C(F)F)c3)S(=O)(=O)NC2C1` (single isomer, unassigned) [Example E43, Ethyl 8-((3-(difluoromethyl)-4-fluorophenyl)carbamoyl)-7-methyl-3a,4,10,10a-tetrahydro-1H,7H-dipyrrolo[3,4-b:3′,4′-f][1,4,5]oxathiazocine-2(3H)-carboxylate 5,5-dioxide (Chiral 3aS,10aS or 3aR,10aR - Stereochemistry unknown)] was tested. Which “Anti HBV Activity (conc μM)” value did it give?
Its value is “A (0.05) (HBV inhibition greater than 50% at the concentration indicated in the table)”.

Same assay, conditions: 0.1 μM, 96 hours, relative to non-treated reference

How did the “Anti HBV Activity (conc μM)” value turn out when “ethyl 7-methyl-8-((3,4,5-trifluorophenyl)carbamoyl)-3a,4,10,10a-tetrahydro-1H,7H-dipyrrolo[3,4-b:3′,4′-f][1,4,5]oxathiazocine-2(3H)-carboxylate 5,5-dioxide (3aR,10aR) [Example E31]” was run?
The value was “B (0.1) (HBV inhibition less than 50% at the concentration indicated in the table)”.

How did the “Anti HBV Activity (conc μM)” value turn out when `CCOC(=O)N1CC2COc3c(cn(C)c3C(=O)Nc3ccc(F)c(F)c3)S(=O)(=O)NC2C1` (single isomer, unassigned) [Example E38, Ethyl 8-((3,4-difluorophenyl)carbamoyl)-7-methyl-3a,4,10,10a-tetrahydro-1H,7H-dipyrrolo[3,4-b:3′,4′-f][1,4,5]oxathiazocine-2(3H)-carboxylate 5,5-dioxide (Chiral 3aS,10aS or 3aR,10aR - Stereochemistry unknown)] was run?
Its value is “B (0.1) (HBV inhibition less than 50% at the concentration indicated in the table)”.

Same assay, conditions: 96 hours, 8-point dose-response curve, read-out: HBV inh EC50

With `CCOC(=O)N1CC2COc3c(cn(C)c3C(=O)Nc3ccc(F)c(C(F)F)c3)S(=O)(=O)NC2C1` (single isomer, unassigned) [Example E43, Ethyl 8-((3-(difluoromethyl)-4-fluorophenyl)carbamoyl)-7-methyl-3a,4,10,10a-tetrahydro-1H,7H-dipyrrolo[3,4-b:3′,4′-f][1,4,5]oxathiazocine-2(3H)-carboxylate 5,5-dioxide (Chiral 3aS,10aS or 3aR,10aR - Stereochemistry unknown)] as the compound, how does the EC50 read?
Its EC50 is < 1000 nM.

With `Cc1cc(NC(=O)c2c3c(cn2C)S(=O)(=O)NC2CN(C(=O)C4(C)COC4)CC2CO3)ccc1F` (stereo not drawn) [Example E149, Trans-N-(4-fluoro-3-methylphenyl)-7-methyl-2-(3-methyloxetane-3-carbonyl)-2,3,3a,4,10,10a-hexahydro-1H,7H-dipyrrolo[3,4-b:3′,4′-f][1,4,5]oxathiazocine-8-carboxamide 5,5-dioxide] as the compound, how does the EC50 read?
Its EC50 is < 1000 nM.

Same assay, conditions: Hepatitis B virus, 0.05 μM, 96 hours, relative to non-treated reference, read-out: Anti HBV Activity (conc μM)

With `Cc1nnc(N2CC3COc4c(cn(C)c4C(=O)Nc4cc(F)c(F)c(F)c4)S(=O)(=O)NC3C2)o1` (stereo not drawn) [Example E78, cis-7-methyl-2-(5-methyl-1,3,4-oxadiazol-2-yl)-N-(3,4,5-trifluorophenyl)-2,3,3a,4,10,10a-hexahydro-1H,7H-dipyrrolo[3,4-b:3′,4′-f][1,4,5]oxathiazocine-8-carboxamide 5,5-dioxide] as the compound, how does the inhibition at 0.05 µM read?
Its inhibition at 0.05 µM is > 50%.

With `Cc1cc(NC(=O)c2c3c(cn2C)S(=O)(=O)NC2CNCC2CO3)ccc1F` (stereo not drawn) [Example E47, cis-N-(4-fluoro-3-methylphenyl)-7-methyl-2,3,3a,4,10,10a-hexahydro-1H,7H-dipyrrolo[3,4-b:3′,4′-f][1,4,5]oxathiazocine-8-carboxamide 5,5-dioxide hydroiodide] as the compound, how does the inhibition at 0.05 µM read?
Its inhibition at 0.05 µM is > 50%.

Same assay, conditions: Hepatitis B virus, 0.1 μM, 96 hours, relative to non-treated reference, read-out: Anti HBV Activity (conc μM)

Which inhibition at 0.1 µM does the source give for `Cn1cc2c(c1C(=O)Nc1cc(F)c(F)c(F)c1)OCC1CN(C(=O)c3c[nH]c(=O)cn3)CC1NS2(=O)=O` (stereo not drawn) [Example E56, cis-7-methyl-2-(5-oxo-4,5-dihydropyrazine-2-carbonyl)-N-(3,4,5-trifluorophenyl)-2,3,3a,4,10,10a-hexahydro-1H,7H-dipyrrolo[3,4-b:3′,4′-f][1,4,5]oxathiazocine-8-carboxamide 5,5-dioxide] here?
Its inhibition at 0.1 µM is < 50%.

Which inhibition at 0.1 µM does the source give for `Cn1cc2c(c1C(=O)Nc1cc(F)c(F)c(F)c1)OCC1CN(CC(F)(F)F)CC1NS2(=O)=O` (stereo not drawn) [Example E73, cis-7-methyl-2-(2,2,2-trifluoroethyl)-N-(3,4,5-trifluorophenyl)-2,3,3a,4,10,10a-hexahydro-1H,7H-dipyrrolo[3,4-b:3′,4′-f][1,4,5]oxathiazocine-8-carboxamide 5,5-dioxide] here?
Its inhibition at 0.1 µM is > 50%.

How did the inhibition at 0.1 µM turn out when `Cn1cc(C(=O)N2CC3COc4c(cn(C)c4C(=O)Nc4cc(F)c(F)c(F)c4)S(=O)(=O)NC3C2)cn1` (stereo not drawn) [Example E57, cis-7-methyl-2-(1-methyl-1H-pyrazole-4-carbonyl)-N-(3,4,5-trifluorophenyl)-2,3,3a,4,10,10a-hexahydro-1H,7H-dipyrrolo[3,4-b:3′,4′-f][1,4,5]oxathiazocine-8-carboxamide 5,5-dioxide] was run?
Its inhibition at 0.1 µM is < 50%.

Which inhibition at 0.1 µM does the source give for `C[C@@H](O)[C@H](N)C(=O)N1C[C@@H]2COc3c(cn(C)c3C(=O)Nc3cc(F)c(F)c(F)c3)S(=O)(=O)N[C@@H]2C1` (mixture of isomers) [Example E69, cis-2-(L-threonyl)-7-methyl-N-(3,4,5-trifluorophenyl)-2,3,3a,4,10,10a-hexahydro-1H,7H-dipyrrolo[3,4-b:3′,4′-f][1,4,5]oxathiazocine-8-carboxamide 5,5-dioxide] here?
The inhibition at 0.1 µM was < 50%.

How did the inhibition at 0.1 µM turn out when `Cn1cc2c(c1C(=O)Nc1ccc(F)c(F)c1)OCC1(C)CCCC1NS2(=O)=O` (centres unmarked) [Example E29, N-(3,4-difluorophenyl)-2,8a-dimethyl-5a,6,7,8,8a,9-hexahydro-2H,5H-cyclopenta[f]pyrrolo[3,4-b][1,4,5]oxathiazocine-1-carboxamide 4,4-dioxide] was run?
The inhibition at 0.1 µM was < 50%.

Same assay, conditions: Hepatitis B virus, 96 hours, 8-point dose-response curve, read-out: HBV inh EC50

For `Cc1nnc(N2CC3COc4c(cn(C)c4C(=O)Nc4cc(F)c(F)c(F)c4)S(=O)(=O)NC3C2)o1` (stereo not drawn) [Example E78, cis-7-methyl-2-(5-methyl-1,3,4-oxadiazol-2-yl)-N-(3,4,5-trifluorophenyl)-2,3,3a,4,10,10a-hexahydro-1H,7H-dipyrrolo[3,4-b:3′,4′-f][1,4,5]oxathiazocine-8-carboxamide 5,5-dioxide], which EC50 is on record?
Its EC50 is < 1000 nM.

With `Cc1nnc(C(=O)N2C[C@H]3COc4c(cn(C)c4C(=O)Nc4cc(F)c(F)c(F)c4)S(=O)(=O)N[C@H]3C2)o1` [Example E97, (3aR,10aR)-7-methyl-2-(5-methyl-1,3,4-oxadiazole-2-carbonyl)-N-(3,4,5-trifluorophenyl)-2,3,3a,4,10,10a-hexahydro-1H,7H-dipyrrolo[3,4-b:3′,4′-f][1,4,5]oxathiazocine-8-carboxamide 5,5-dioxide] as the compound, how does the EC50 read?
The EC50 was < 1000 nM.

Which EC50 does the source give for `Cc1cc(NC(=O)c2c3c(cn2C)S(=O)(=O)NC2C(=O)N(Cc4ccccc4)CC2CO3)ccc1F` (stereo not drawn) [Example E155, Cis 2-benzyl-N-(4-fluoro-3-methylphenyl)-7-methyl-3-oxo-2,3,3a,4,10,10a-hexahydro-1H,7H-dipyrrolo[3,4-b:3′,4′-f][1,4,5]oxathiazocine-8-carboxamide 5,5-dioxide] here?
Its EC50 is < 1000 nM.

How did the EC50 turn out when `Cc1cc(NC(=O)c2c3c(cn2C)S(=O)(=O)NC2CNCC2CO3)ccc1F` (stereo not drawn) [Example E47, cis-N-(4-fluoro-3-methylphenyl)-7-methyl-2,3,3a,4,10,10a-hexahydro-1H,7H-dipyrrolo[3,4-b:3′,4′-f][1,4,5]oxathiazocine-8-carboxamide 5,5-dioxide hydroiodide] was run?
The EC50 was < 1000 nM.

With `Cc1cc(NC(=O)c2c3c(cn2C)S(=O)(=O)N[C@H]2CN(C(=O)OC(C)(C)C)C[C@@H]2CO3)ccc1F` (single isomer, unassigned) [Example E152] as the compound, how does the EC50 read?
The EC50 was < 1000 nM.

How did the EC50 turn out when `Cc1nnc(C(=O)N2C[C@H]3COc4c(cn(C)c4C(=O)Nc4ccc(F)c(Cl)c4)S(=O)(=O)N[C@H]3C2)o1` [Example E99, (3aR,10aR)—N-(3-chloro-4-fluorophenyl)-7-methyl-2-(5-methyl-1,3,4-oxadiazole-2-carbonyl)-2,3,3a,4,10,10a-hexahydro-1H,7H-dipyrrolo[3,4-b:3′,4′-f][1,4,5]oxathiazocine-8-carboxamide 5,5-dioxide] was run?
Its EC50 is < 1000 nM.

For `Cc1nnc(C(=O)N2C[C@H]3COc4c(cn(C)c4C(=O)Nc4ccc(F)c(C)c4)S(=O)(=O)N[C@@H]3C2)o1` (relative stereo) [Example E146, Trans-N-(4-fluoro-3-methylphenyl)-7-methyl-2-(5-methyl-1,3,4-oxadiazole-2-carbonyl)-2,3,3a,4,10,10a-hexahydro-1H,7H-dipyrrolo[3,4-b:3′,4′-f][1,4,5]oxathiazocine-8-carboxamide 5,5-dioxide], which EC50 is on record?
The EC50 was < 1000 nM.

For `Cc1cc(NC(=O)c2c3c(cn2C)S(=O)(=O)N[C@H]2CN(C(=O)[C@@H]4CCCO4)C[C@H]2CO3)ccc1F` [Example E101, (3aR,10aR)—N-(4-fluoro-3-methylphenyl)-7-methyl-2-((S)-tetrahydrofuran-2-carbonyl)-2,3,3a,4,10,10a-hexahydro-1H,7H-dipyrrolo[3,4-b:3′,4′-f][1,4,5]oxathiazocine-8-carboxamide 5,5-dioxide], which EC50 is on record?
Its EC50 is < 1000 nM.

For `Cc1nnc(N2C[C@H]3COc4c(cn(C)c4C(=O)Nc4ccc(F)c(C)c4)S(=O)(=O)N[C@H]3C2)o1` [Example E118, (3aR,10aR)—N-(4-fluoro-3-methylphenyl)-7-methyl-2-(5-methyl-1,3,4-oxadiazol-2-yl)-2,3,3a,4,10,10a-hexahydro-1H,7H-dipyrrolo[3,4-b:3′,4′-f][1,4,5]oxathiazocine-8-carboxamide 5,5-dioxide], which EC50 is on record?
Its EC50 is < 1000 nM.

With `Cc1nc(C(=O)N2C[C@H]3COc4c(cn(C)c4C(=O)Nc4ccc(F)c(C)c4)S(=O)(=O)N[C@H]3C2)co1` [Example E112, (3aR,10aR)—N-(4-fluoro-3-methylphenyl)-7-methyl-2-(2-methyloxazole-4-carbonyl)-2,3,3a,4,10,10a-hexahydro-1H,7H-dipyrrolo[3,4-b:3′,4′-f][1,4,5]oxathiazocine-8-carboxamide 5,5-dioxide] as the compound, how does the EC50 read?
Its EC50 is < 1000 nM.

For `Cc1nnc(C(=O)N2C[C@H]3CSc4c(cn(C)c4C(=O)Nc4ccc(F)c(C)c4)S(=O)(=O)N[C@H]3C2)o1` [Example E124, (3aR,10aR)—N-(4-fluoro-3-methylphenyl)-7-methyl-2-(5-methyl-1,3,4-oxadiazole-2-carbonyl)-2,3,3a,4,10,10a-hexahydro-1H,7H-dipyrrolo[3,4-c:3′,4′-g][1,6,2]dithiazocine-8-carboxamide 5,5-dioxide], which EC50 is on record?
Its EC50 is < 1000 nM.

Which EC50 does the source give for `Cc1cc(NC(=O)c2c3c(cn2C)S(=O)(=O)NC2CCN(C(=O)C45CC(CO4)C5)CC2CO3)ccc1F` (racemic) [Example E128, Cis-8-(2-oxabicyclo[2.1.1]hexane-1-carbonyl)-N-(4-fluoro-3-methylphenyl)-2-methyl-5,5a,6,7,8,9,9a,10-octahydro-2H-pyrido[4,3-f]pyrrolo[3,4-b][1,4,5]oxathiazocine-1-carboxamide 4,4-dioxide] here?
The EC50 was < 1000 nM.

How did the EC50 turn out when `Cc1cc(NC(=O)c2c3c(cn2C)S(=O)(=O)NC2CN(C(=O)C45CC(CO4)C5)CCC2CO3)ccc1F` (racemic) [Example E138, Cis-7-(2-oxabicyclo[2.1.1]hexane-1-carbonyl)-N-(4-fluoro-3-methylphenyl)-2-methyl-5,5a,6,7,8,9,9a,10-octahydro-2H-pyrido[3,4-f]pyrrolo[3,4-b][1,4,5]oxathiazocine-1-carboxamide 4,4-dioxide] was run?
The EC50 was < 1000 nM.

With `Cc1cc(NC(=O)c2c3c(cn2C)S(=O)(=O)NC2CN(C(=O)c4ncoc4C)CC2CO3)ccc1F` (stereo not drawn) [Example E147, Trans-N-(4-fluoro-3-methylphenyl)-7-methyl-2-(5-methyloxazole-4-carbonyl)-2,3,3a,4,10,10a-hexahydro-1H,7H-dipyrrolo[3,4-b:3′,4′-f][1,4,5]oxathiazocine-8-carboxamide 5,5-dioxide] as the compound, how does the EC50 read?
Its EC50 is < 1000 nM.
